Assays:
[1] = tested on: human CF nasal epithelia; test: Blue Dextran volume transport assay; assay type: cell-based; conditions: CF nasal epithelia monolayers, apical application, 18 hours
From the text: In normal human airway epithelia, Na+ and Cl− currents (CFTR and Ca2+-activated Cl− currents) contribute to airway surface liquid (ASL) fluid volume regulation depending on signaling equilibria. In contrast, in human CF airway epithelia, Na+ currents through ENaC dominate basal ASL volume regulation accompanied by a relatively minor contribution through Ca2+-activated Cl− currents. The combination of enhanced ENaC currents and transient Ca2+-activated Cl− currents in CF result in an inadequate hydration of the ASL and reduction of mucociliary clearance. […] The resulting reduction in the ability of these monolayers to concentrate BD was taken as a functional indicator of the test compound's involvement in the inhibition of ENaC.
All procedures were performed aseptically. The Blue Dextran (BD) stock solution was prepared with HEPES modified Ringer's buffer (HMRB) (2 mg BD/ml buffer). The compounds tested were solubilized in HMRB containing ˜1 μM BD. Final concentration of vehicle is 0.1% unless otherwise indicated (1:1, DMSO+DMSO containing 5% (w/v) pluronic-F127). The composition of HMRB (pH 7.3, 6.7 when equilibrated with 95%air/5%CO2) is as follows (in mM): 135 NaCl, 1.2 CaCl2, 1.2 MgCl2, 2.4 K2HPO4, 0.6 KH2PO4, 10 HEPES, 10 glucose (˜285 mOsm.). 200 μl of the BD solution was applied to the apical surface and placed in a highly humidified incubator (Forma model 3956 set on “high” humidity) for 18 hours. Basolateral buffer consisted of BEGM (˜300 mOsm.). After 18 hours, 60 μl of the remaining apical buffer was sampled and transferred to a 0.7 ml micro-centrifuge tube for storage until analysis. A standard concentration curve was obtained by determining the optical densities, at 660 nm, of a serial dilution of 10 μM Blue Dextran in HMRB in a 96-well plate using a Packard Spectracount. The [BD] of the samples, which were read on the same plate, was determined by extrapolation from the BD standard curve using Packard I-Smart software. The increase in [BD] from the starting value of 1 μM was taken to be an indication of the magnitude of volume absorption occurring across the monolayer. The rate of absorption was calculated by dividing the change in volume by the duration of the experiment. This value was normalized to a surface area of 1 cm^2, to give μl·cm2 −1·hr −1. All experiments, unless otherwise indicated, were conducted over a period of 18 hours.

[2] = tested on: iNOS; test: Survey of iNOS inhibition, 2 hr LPS pre-stimulation (nitrite by Greiss reagent); assay type: cell-based, murine; conditions: RAW 264.7 cells, LPS/ATP stimulation for two hours, then compound added
Procedure: We chose the well characterized LPS stimulation of the murine macrophage cell line RAW 264.7, that produces substantial quantities of NO, to screen inositol polyphosphate compounds in vitro (FIGS. 8-12 and Table 1). This assay system offers a number of opportunities to characterize drug action as pre-transcriptional, post transcriptional, translational or post translational.
Nitrite (NO2^−) accumulation in cell-free supernatant, used as an indicator of NO production, was measured using the modified Greiss reagent (Sigma G4410, St Louis, Mo.). This method was applied as described elsewhere (Martinez, J. et al., “Regulation of prostaglandin E2 production by the superoxide radical and nitric oxide in mouse peritoneal macrophages,” Free Radical Res 32:303-311 (2000)). Briefly, RAW264.7 cells (ATCC, #TIB-71) were maintained in standard tissue culture flasks and with DMEM+10% heat inactivated fetal bovine serum(HI-FBS) (Fetal-bovine serum, Heat-inactivated, Sercare Life Sciences, Oceanside, Calif.). Experiments were initiated by seeding logarithmic cells at […] per well in a 96-well plate in phenol-red free RPMI 1640 (Sigma #R8755)+10% HI-FBS at least four hours before the initiation of the experiment. Cells were exposed to treatment compounds for a minimum of 30 minutes in RPMI-1640 supplemented with 10% fetal calf serum. The compound treatment was removed and inflammatory compounds dissolved in RPMI-1640 supplemented with 10% FBS were applied to the cells. Stimulated cells and appropriate controls were incubated for 18-24 hours before sampling 50 μl of the cell-free supernatant from each well. This sample of supernatant was combined with 25 μl of a nitrate reductase cocktail (0.1 units/ml nitrate reductase enzyme, 5 μM FAD, 30 μM NADPH) and incubated for 30 minutes[…]. To this mixture, 25 μl of LDH cocktail (100 units/ml rabbit muscle lactate dehydrogenase in 0.3 mM sodium pyruvate) was added and the total mixture was incubated another 5-10 min at […]. Greiss reagent was added in 100 μl amounts to each 100 μl experimental sample. Color development proceeded for a minimum of 10 minutes while protected from light. Nitrite levels were compared to a sodium nitrite standard curve freshly prepared in the same medium used for the growth and incubation of the cells and treated with the same enzyme treatments. Color development was recorded by using a Packard Spectracount Plate reader at 540 nm wave length.
It is important to identify the conditions under which the compounds exert their greatest desired effect with the minimal adverse effects. Understanding this relationship is important as signaling molecule mimetics may require special conditions of concentration and duration to generate the desired therapeutic effect. To ascertain whether effects could be observed post-exposure to stimulus, cells were exposed to the LPS/ATP stimulation for two hours at […] after which compound was added.

[3] = tested on: CFHNE cell monolayers; test: Cystic fibrosis human nasal epithelial cell Ussing chamber assay; assay type: cell-based; conditions: 2 hour pretreatment, measured 22 hours later
From the text: CF Human Nasal Epithelial (CFHNE) Cell Isolation and Proliferation: Surgically removed nasal polyps were obtained from volunteers in collaboration with Dr. Bonnie Ramsey at Children's Hospital, Seattle and Dr. Ludwig Allegra at the Northwest Nasal Sinus Center, and transported on ice in a sterile container containing a 1:1 mixture of Dulbecco's modification of minimum essential medium Eagle and Ham's F-12 nutrient medium (DMEM/F-12)(Irvine Scientific, Santa Ana, Calif.) supplemented with 100 U/ml penicillin, 0.1 mg/ml streptomycin, 10 mM HEPES, and 2 mM L-glutamine. The tissue samples were aseptically removed from the transport medium and washed (repeated 5X) by suspending in 40 ml of Joklik's modification of minimum essential medium Eagle (JMEM) at 4° C., and centrifuging at 500 RPM. The supernatant was aspirated and discarded. The tissue was then transferred to JMEM containing 200 U/ml penicillin, 0.2 mg/ml streptomycin, 0.1 mg/ml gentamicin sulfate (Clonetics, San Diego, Calif.), and 0.1 μg/ml amphotericin-B (Clonetics), and 0.1% Protease (Sigma), washed an additional 2×, suspended in 15 ml in a 10 cm tissue culture dish, and incubated at 4° C. for 24 hours. The tissue samples were then gently triturated, the connective tissue aseptically removed, and the remaining cell suspension centrifuged at 1000 RPM for 5 min. […] The cells were then counted using a hemocytometer. […]

IC50 ([2]; experiment 1 of three) | IC50 ([2]; experiment 2 of three) | IC50 ([2]; experiment 3 of three) | Structure (SMILES) | inhibition of fluid absorption [1] | effect on basal Isc [3]
18 µM | 3.13 µM | 12.5 µM | CCC(=O)OCOP(=O)(OCOC(=O)CC)OC1C2OC3(CC4CCC3(C)C4(C)C)OC2C(OP(=O)(OCOC(=O)CC)OCOC(=O)CC)C(OP(=O)(OCOC(=O)CC)OCOC(=O)CC)C1OP(=O)(OCOC(=O)CC)OCOC(=O)CC (centres unmarked) [INO-4984, 2,3-camphanylidene-myo-inositol 1,4,5,6-tetrakisphosphate octakis (propionoxymethyl) ester] | dose dependent inhibition of fluid absorption | 
6.25 µM | 3.13 µM | 6.25 µM | CCC(=O)OCOP(=O)(OCOC(=O)CC)OC1C2OC3(CC4CCC3(C)C4(C)C)OC2C(OP(=O)(OCOC(=O)CC)OCOC(=O)CC)C(OP(=O)(OCOC(=O)CC)OCOC(=O)CC)C1OP(=O)(OCOC(=O)CC)OCOC(=O)CC (centres unmarked) [INO-4996, 1,2-camphanylidene-myo-inositol 3,4,5,6-tetrakisphosphate octakis (propionoxymethyl) ester] | dose dependent inhibition of fluid absorption | 
12.5 µM | 12.5 µM | 9 µM | CCCC(=O)OC1C(OCCCc2ccccc2)C(OP(=O)(OCOC(=O)CC)OCOC(=O)CC)C(OP(=O)(OCOC(=O)CC)OCOC(=O)CC)C(OP(=O)(OCOC(=O)CC)OCOC(=O)CC)C1OP(=O)(OCOC(=O)CC)OCOC(=O)CC (centres unmarked) [INO-4997, 2-O-butyryl-1-O-(3-phenylpropyl)-myo-inositol 3,4,5,6-tetrakisphosphate octakis (propionoxymethyl) ester] | dose dependent inhibition of fluid absorption | prolonged effect
 |  |  | N=C(N)NC(=O)c1nc(Cl)c(N)nc1N [amiloride, reference compound] | inhibited fluid absorption measured by the Blue Dextran assay in a dose dependent fashion | 

Source: patent publication US20070129336A1, “Camphanylidene and phenylalkyl inositol polyphosphate compounds, compositions, and methods of their use” (Inologic, Inc., priority 2003, published 2007)
